Results: PubChem BioAssay (NCI)
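Each compound was tested at five concentrations against cells in 96-well plates for 48 hours. At the TGI there is no net growth.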

Test system: RPMI-8226 leukemia
Experiment: NCI-60 cell line screen, 48 h

Point of comparison: CN(C)Cc1cc(C(=O)/C=C/c2ccc([N+](=O)[O-])cc2)cc(CN(C)C)c1O, TGI 6.98 µM. Against it:
- O=C(O)C(O)C(O)C(O)C(O)CO (stereo not given) — higher, > 100 µM
- OC(C#CCN1CCCC1)(c1ccccc1)c1ccccc1Cl (stereo not given) — higher, > 100 µM
- CSc1nc2c(c(N(C)C)n1)C(O)n1c(nc3ccccc31)S2 (stereo not given) — higher, > 100 µM
- O=C1CSC2(CC(/C=C/c3cccs3)=NN2c2cccc(S(=O)(=O)O)c2)N1c1nc2ccccc2s1 (stereo not given) — higher, > 100 µM
- COc1ccc(-c2nc3ccccc3c(=S)n2OC(C)=O)cc1 — higher, > 25 µM
- C[C@@H]1CCC2[C@@H](C)[C@@H](O[C@H]3O[C@@H]4O[C@@]5(C)CCC6[C@H](C)CCC([C@H]3C)[C@]64OO5)O[C@@H]3O[C@@]4(C)CCC1[C@@]23OO4 (stereo not given in full) — higher, > 7.26 µM
- O=C(c1ccccc1)c1ccc2c(c1)NC(=O)c1ccccc1SSc1ccccc1C(=O)N2 — higher, > 100 µM
- CCCCOCCOC1=C(Cl)C(=O)c2c(O)ccc(O)c2C1=O — 8.7-fold lower, 0.806 µM
- COc1ccc(C(=O)NCCN(C)C)c2nc3ccccc3cc12 — within 1.5-fold, 6.71 µM
- Cc1ccc(/C=C2/N=C(N/N=C\C(O)C(O)C(O)C(O)CO)NC2=O)cc1 (stereo not given) — higher, > 100 µM
- CCN(C(=O)N[C@@H](C)C(=O)N[C@@H](Cc1ccccc1)C(=O)OC)c1ccccc1 — higher, > 100 µM
- O=C(CCSC1=NCCCN1)c1ccc(F)cc1 — 2.1-fold higher, 14.8 µM
- CCOc1c(OC)cc(-c2nc3n(n2)C(=O)C(CC)S3)cc1OC (stereo not given) — higher, > 10 µM
- CC1OC(O[C@H]2C3C=CO[C@@H](OC4OC(CO)C(O)C(O)C4O)C3[C@@]3(COC(=O)/C=C/c4ccccc4)O[C@@H]23)C(O)C(O)C1O (stereo not given in full) — higher, > 100 µM
- C/C1=C\[C@H](C)C[C@H](C)OC(=O)[C@H](C)NC(=O)[C@@H](Cc2ccc(O)c(Br)c2)N(C)C(=O)[C@H](C)NC(=O)[C@@H](C)C1 — 12-fold lower, 0.604 µM
- COC1OC2COC(c3ccccc3)OC2C(O)C1OC(=S)c1ccccc1 (stereo not given) — 5.2-fold higher, 36.5 µM

Test system: OVCAR-8 ovarian
Experiment: NCI-60 cell line screen, 48 h

Point of comparison: CN1CC[C@]2(c3cccc(O)c3)CC(=O)/C(=C/c3ccccc3)[C@@H]1C2, TGI 10.5 µM. Against it:
- CO/N=C(/C(=O)OC)c1ccccc1COc1ccccc1C(F)(F)F — higher, > 100 µM
- COc1cc(Nc2ccc3c(c2)CCC3)nc(OC)n1 — higher, > 100 µM
- CCOC(=O)c1c2cccccc-2nc1Nc1cccc2c(C)ccnc12 — not separable, > 10 µM
- Cc1c2c(c(C)n1-c1ccccc1)C(=O)N(CCN1CCN(c3cccc(C(F)(F)F)c3)CC1)C2=O — higher, > 100 µM
- CCOC(=O)CC/C(=N/Nc1ccc(Cl)cc1[N+](=O)[O-])C(=O)OCC — higher, > 100 µM
- COc1cc(O)c2c(=O)c(OC)c(-c3ccc(OC)c(O)c3)oc2c1 — higher, > 100 µM
- O=c1c2c(no[n+]2[O-])c2ccccc2n1-c1ccccc1 — within 1.5-fold, 11.1 µM
- Clc1ccc(C=NC23CC4CC(CC(C4)C2)C3)c(Cl)c1 — not separable, > 10 µM
- OCCCc1ccc2c(c1)[C@H](CO)[C@@H](c1ccc(O)cc1)O2 — higher, > 100 µM
- c1ccc(C2=NOC(c3ccccc3)N2C23CC4CC(CC(C4)C2)C3)cc1 (stereo not given) — not separable, > 10 µM
- CCOC(=O)C(NC(=O)CC)(N1CCN(c2cc3c(cc2F)c(=O)c(C(=O)O)cn3C2CC2)CC1)C(F)(F)F (stereo not given) — higher, > 100 µM
- O=[N+]([O-])c1cc2oc(CSc3ccccc3)nc2cc1Cl — higher, > 100 µM
- CC(C)(CO)CNc1nc(N)nc(Cl)c1/C=N/O — higher, > 100 µM
- COc1ccc2oc(=N)c(C(=O)Nc3ccccc3)cc2c1 — 4.4-fold higher, 46 µM
- C=C(C)[C@H]1C2=CC(C(=O)OC)=C(C[C@H](C(=C)C)[C@@H](O)[C@@H](O)C3=C[C@H]1OC3=O)O2 — higher, > 100 µM
- O=c1onc2n1-c1cc(Cl)ccc1C(=S)N1CSCC21 (stereo not given) — higher, > 100 µM
- O=C(O)C(O)C(O)C(O)C(O)CO (stereo not given) — higher, > 100 µM
- OC(C#CCN1CCCC1)(c1ccccc1)c1ccccc1Cl (stereo not given) — higher, > 100 µM
- CSc1nc2c(c(N(C)C)n1)C(O)n1c(nc3ccccc31)S2 (stereo not given) — higher, > 56.8 µM
- O=C1CSC2(CC(/C=C/c3cccs3)=NN2c2cccc(S(=O)(=O)O)c2)N1c1nc2ccccc2s1 (stereo not given) — higher, > 100 µM
- COc1ccc(-c2nc3ccccc3c(=S)n2OC(C)=O)cc1 — higher, > 25 µM
- C[C@@H]1CCC2[C@@H](C)[C@@H](O[C@H]3O[C@@H]4O[C@@]5(C)CCC6[C@H](C)CCC([C@H]3C)[C@]64OO5)O[C@@H]3O[C@@]4(C)CCC1[C@@]23OO4 (stereo not given in full) — higher, > 25 µM
- O=C(c1ccccc1)c1ccc2c(c1)NC(=O)c1ccccc1SSc1ccccc1C(=O)N2 — higher, > 100 µM
- CCCCOCCOC1=C(Cl)C(=O)c2c(O)ccc(O)c2C1=O — 4.1-fold lower, 2.56 µM
- COc1ccc(C(=O)NCCN(C)C)c2nc3ccccc3cc12 — 2.2-fold lower, 4.67 µM
- Cc1ccc(/C=C2/N=C(N/N=C\C(O)C(O)C(O)C(O)CO)NC2=O)cc1 (stereo not given) — higher, > 100 µM
- CCN(C(=O)N[C@@H](C)C(=O)N[C@@H](Cc1ccccc1)C(=O)OC)c1ccccc1 — higher, > 100 µM
- CN(C)Cc1cc(C(=O)/C=C/c2ccc([N+](=O)[O-])cc2)cc(CN(C)C)c1O — higher, > 100 µM
- O=C(CCSC1=NCCCN1)c1ccc(F)cc1 — higher, > 94.3 µM
- CCOc1c(OC)cc(-c2nc3n(n2)C(=O)C(CC)S3)cc1OC (stereo not given) — not separable, > 10 µM
- CC1OC(O[C@H]2C3C=CO[C@@H](OC4OC(CO)C(O)C(O)C4O)C3[C@@]3(COC(=O)/C=C/c4ccccc4)O[C@@H]23)C(O)C(O)C1O (stereo not given in full) — higher, > 100 µM
- C/C1=C\[C@H](C)C[C@H](C)OC(=O)[C@H](C)NC(=O)[C@@H](Cc2ccc(O)c(Br)c2)N(C)C(=O)[C@H](C)NC(=O)[C@@H](C)C1 — not separable, > 7.69 µM
- COC1OC2COC(c3ccccc3)OC2C(O)C1OC(=S)c1ccccc1 (stereo not given) — higher, > 100 µM

Test system: BT-549 breast
Experiment: NCI-60 cell line screen, 48 h

Point of comparison: O=C(CCSC1=NCCCN1)c1ccc(F)cc1, TGI 35.7 µM. Against it:
- CO/N=C(/C(=O)OC)c1ccccc1COc1ccccc1C(F)(F)F — higher, > 100 µM
- COc1cc(Nc2ccc3c(c2)CCC3)nc(OC)n1 — higher, > 100 µM
- CCOC(=O)c1c2cccccc-2nc1Nc1cccc2c(C)ccnc12 — not separable, > 10 µM
- Cc1c2c(c(C)n1-c1ccccc1)C(=O)N(CCN1CCN(c3cccc(C(F)(F)F)c3)CC1)C2=O — higher, > 100 µM
- CCOC(=O)CC/C(=N/Nc1ccc(Cl)cc1[N+](=O)[O-])C(=O)OCC — higher, > 100 µM
- COc1cc(O)c2c(=O)c(OC)c(-c3ccc(OC)c(O)c3)oc2c1 — higher, > 100 µM
- O=c1c2c(no[n+]2[O-])c2ccccc2n1-c1ccccc1 — 4.2-fold lower, 8.56 µM
- Clc1ccc(C=NC23CC4CC(CC(C4)C2)C3)c(Cl)c1 — not separable, > 10 µM
- OCCCc1ccc2c(c1)[C@H](CO)[C@@H](c1ccc(O)cc1)O2 — within 1.5-fold, 47.8 µM
- c1ccc(C2=NOC(c3ccccc3)N2C23CC4CC(CC(C4)C2)C3)cc1 (stereo not given) — not separable, > 10 µM
- CCOC(=O)C(NC(=O)CC)(N1CCN(c2cc3c(cc2F)c(=O)c(C(=O)O)cn3C2CC2)CC1)C(F)(F)F (stereo not given) — higher, > 100 µM
- O=[N+]([O-])c1cc2oc(CSc3ccccc3)nc2cc1Cl — 2.3-fold higher, 80.8 µM
- CC(C)(CO)CNc1nc(N)nc(Cl)c1/C=N/O — higher, > 100 µM
- COc1ccc2oc(=N)c(C(=O)Nc3ccccc3)cc2c1 — within 1.5-fold, 43.8 µM
- C=C(C)[C@H]1C2=CC(C(=O)OC)=C(C[C@H](C(=C)C)[C@@H](O)[C@@H](O)C3=C[C@H]1OC3=O)O2 — higher, > 100 µM
- O=c1onc2n1-c1cc(Cl)ccc1C(=S)N1CSCC21 (stereo not given) — higher, > 100 µM
- CN1CC[C@]2(c3cccc(O)c3)CC(=O)/C(=C/c3ccccc3)[C@@H]1C2 — 4.9-fold lower, 7.27 µM
- O=C(O)C(O)C(O)C(O)C(O)CO (stereo not given) — higher, > 100 µM
- OC(C#CCN1CCCC1)(c1ccccc1)c1ccccc1Cl (stereo not given) — higher, > 100 µM
- CSc1nc2c(c(N(C)C)n1)C(O)n1c(nc3ccccc31)S2 (stereo not given) — higher, > 100 µM
- O=C1CSC2(CC(/C=C/c3cccs3)=NN2c2cccc(S(=O)(=O)O)c2)N1c1nc2ccccc2s1 (stereo not given) — higher, > 100 µM
- COc1ccc(-c2nc3ccccc3c(=S)n2OC(C)=O)cc1 — not separable, > 25 µM
- C[C@@H]1CCC2[C@@H](C)[C@@H](O[C@H]3O[C@@H]4O[C@@]5(C)CCC6[C@H](C)CCC([C@H]3C)[C@]64OO5)O[C@@H]3O[C@@]4(C)CCC1[C@@]23OO4 (stereo not given in full) — not separable, > 25 µM
- O=C(c1ccccc1)c1ccc2c(c1)NC(=O)c1ccccc1SSc1ccccc1C(=O)N2 — higher, > 100 µM
- CCCCOCCOC1=C(Cl)C(=O)c2c(O)ccc(O)c2C1=O — 100-fold lower, 0.341 µM
- COc1ccc(C(=O)NCCN(C)C)c2nc3ccccc3cc12 — 2.5-fold lower, 14.4 µM
- Cc1ccc(/C=C2/N=C(N/N=C\C(O)C(O)C(O)C(O)CO)NC2=O)cc1 (stereo not given) — higher, > 100 µM
- CCN(C(=O)N[C@@H](C)C(=O)N[C@@H](Cc1ccccc1)C(=O)OC)c1ccccc1 — higher, > 100 µM
- CN(C)Cc1cc(C(=O)/C=C/c2ccc([N+](=O)[O-])cc2)cc(CN(C)C)c1O — within 1.5-fold, 37.1 µM
- CCOc1c(OC)cc(-c2nc3n(n2)C(=O)C(CC)S3)cc1OC (stereo not given) — not separable, > 10 µM
- CC1OC(O[C@H]2C3C=CO[C@@H](OC4OC(CO)C(O)C(O)C4O)C3[C@@]3(COC(=O)/C=C/c4ccccc4)O[C@@H]23)C(O)C(O)C1O (stereo not given in full) — higher, > 100 µM
- C/C1=C\[C@H](C)C[C@H](C)OC(=O)[C@H](C)NC(=O)[C@@H](Cc2ccc(O)c(Br)c2)N(C)C(=O)[C@H](C)NC(=O)[C@@H](C)C1 — 8.7-fold lower, 4.12 µM
- COC1OC2COC(c3ccccc3)OC2C(O)C1OC(=S)c1ccccc1 (stereo not given) — higher, > 100 µM
